Source: PMC10065799, “High-throughput profiling of sequence recognition by tyrosine kinases and SH2 domains using bacterial peptide display” (eLife, 2023)

Experiments:
Fer kinase domain = test: pTyr-Var library bacterial peptide display kinase screen (enrichment scores); format: biochemical, mouse; conditions: sheet "Fer";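 further: log2 fold change in enrichment of variant over reference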
c-Src kinase domain = c-Src kinase domain (Homo sapiens, UniProt P12931); test: as above; format: biochemical; conditions: sheet "Src";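 further: log2 fold change in enrichment of variant over reference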
EPHB1 kinase domain = test: as above; format: biochemical, human; conditions: for Screen: sheet EPHB1, effect of the variant peptide relative to its reference peptide in the pTyr-Var library screen (enrichment scores); for Screen (variant relative to reference peptide, measured in the pTyr-Var library screen): sheet "EPHB1", variant seq vs reference seq, bacterial peptide display enrichment
EPHB2 kinase domain [1] = test: as above; format: biochemical, human; conditions: sheet EPHB2
EPHB2 kinase domain [2] = test: ADP-Quest continuous fluorimetric kinase assay (initial rates of consensus peptides); format: biochemical, human; conditions: peptide 100 μM, kinase 10–50 nM; Figure 2C
Description: A fluorescence-based assay from Eurofins (ADP Quest) was used to measure the Michaelis-Menten kinetic parameters for phosphorylation of the consensus peptides by purified tyrosine kinase domains. In this assay, ADP production as a result of kinase activity is coupled to the production of resorufin, a fluorophore that emits signal at 590 nm. For all experiments, the assay reactions were set up as described in the provided assay kit protocol, in a 384 well plate format. The peptide solutions were serially diluted in 100 mM Tris, pH 8.0, and the kinases were diluted to 50 nM in buffer (10 mM HEPES, 100 mM NaCl, 1 mM TCEP, 5 mM MgCl2, 10% (v/v) glycerol). The final reaction mixtures contained 10 nM of kinase with 100 μM of ATP. […] Phosphorylation reaction progress was monitored by measuring fluorescence at excitation 530 nm and emission 590 nm every 2 min at 37 °C on a plate reader (BioTek Synergy Neo 2). The fluorescence units (RFU) were converted to μM ADP by comparison to a standard curve, and the initial rates were extracted from the linear regime of the reaction progress curves. Initial rates were also measured for samples containing each kinase but lacking a peptide substrate, to account for background ATP hydrolysis. This background rate was subtracted from the rates measured in the presence of peptide. […]

c-Abl kinase domain [3] = target: T1, c-Abl kinase domain (Mus musculus, UniProt P00520); test: ADP-Quest continuous fluorimetric kinase assay (Michaelis-Menten parameters and initial rates); format: biochemical; conditions: peptide 100 μM, kinase 10–50 nM; Figure 2C
T1 sequence (P00520 242-493 limits assumed): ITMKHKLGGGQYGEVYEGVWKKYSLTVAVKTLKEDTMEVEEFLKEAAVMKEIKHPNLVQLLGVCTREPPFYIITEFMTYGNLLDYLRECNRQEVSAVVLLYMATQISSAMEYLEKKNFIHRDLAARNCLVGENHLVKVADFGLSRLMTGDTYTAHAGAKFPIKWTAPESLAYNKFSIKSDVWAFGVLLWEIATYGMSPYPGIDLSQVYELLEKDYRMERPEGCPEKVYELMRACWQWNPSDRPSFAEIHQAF

c-Abl kinase domain [4] = target: T1, c-Abl kinase domain; test: pTyr-Var library bacterial peptide display kinase screen (enrichment scores); format: biochemical
[5] = value of the variant peptide against its reference peptide in the pTyr-Var library screen with Fer
[6] = variant peptide versus its reference peptide in the pTyr-Var library screen
[7] = effect of variant peptide relative to its reference peptide in the pTyr-Var library screen (enrichment scores)
[8] = effect of the variant relative to its reference peptide in the pTyr-Var library screen
[9] = effect of the variant peptide relative to its reference peptide in the pTyr-Var library screen
[10] = sheet "Abl", effect of variant peptide relative to its reference peptide in pTyr-Var library screen (enrichment)
[11] = variant peptide relative to its reference peptide, pTyr-Var library screen enrichment
[12] = fig5-data2, sheet "Abl", Screen for the variant/reference peptide pair, pTyr-Var library

Row | Substance | Screen (Fer kinase domain; [5]) | Screen (EPHB1 kinase domain) | Screen (EPHB2 kinase domain [1]; [7]) | Screen (c-Src kinase domain; [9]) | other results
1 | RAILLYEFVGK [NATD1_Y45_V42I_YF] | 1.125 | 1.082 | 1.274 | – | Screen (c-Src kinase domain; [6]): 1.103
2 | Ac-GPPEPIYEVPPPKKKG-NH2 [EPHB2 Consensus, EPHB2 consensus substrate peptide from X5-Y-X5 screen] | – | – | – | – | phosphorylation of consensus peptide by EPHB2 (initial rate relative to cognate consensus) (EPHB2 kinase domain [2]): efficiently phosphorylated; phosphorylation of consensus peptide by c-Abl (initial rate relative to cognate consensus) (c-Abl kinase domain [3]): efficiently phosphorylated
3 | QNTGDYCDLFG [PTPN11_Y62_Y63C_YF] | – | -1.22 | -1.274 | – | Screen (c-Src kinase domain; [6]): -0.9656
4 | DASENYFVMDS [TMEM240_Y77_T80M] | – | – | – | – | Screen (variant relative to reference peptide, measured in the pTyr-Var library screen) (EPHB1 kinase domain): 2.244; Screen (EPHB2 kinase domain [1]; [8]): 2.274
5 | DSFATYFRWVL [H2BW1_Y84_R87W] | 2.515 | 1.664 | – | 2.683 | –
6 | EAVSIYQFFGQ [CBLC_Y402_H405Y_YF] | -0.2521 | 2.283 | 1.796 | -0.1267 | –
7 | FFPANYVAPMT [GRAP2_Y324_L319F] | – | 0.4698 | 0.7095 | – | –
8 | RRIFSYRGHLW [VHL_Y112_H110Y_YF] | – | – | – | – | Screen (c-Abl kinase domain [4]; [10]): -4.34; Screen (c-Src kinase domain; [6]): -2.013; Screen (variant relative to reference peptide, measured in the pTyr-Var library screen) (EPHB1 kinase domain): -1.652
9 | LGQRIYQFIRS [DYRK1B_Y271_Q275R_YF] | -0.8955 | -0.4041 | -1.048 | -0.5682 | –
10 | ITNLLYHVVSW [GBA_Y412_G416S] | – | 0.5526 | 0.7379 | -0.28 | –
11 | RKVLVYDKLNV [ROR2_Y624_N620K] | – | -0.6022 | -1.435 | – | Screen (Fer kinase domain; [11]): -1.726; Screen (c-Src kinase domain; [6]): -1.144
12 | PTKNDYWAMPA [WWOX_Y287_L291P] | – | – | – | – | Screen (c-Abl kinase domain [4]; [10]): -1.562; Screen (variant relative to reference peptide, measured in the pTyr-Var library screen) (EPHB1 kinase domain): 3.488; Screen (EPHB2 kinase domain [1]; [8]): 3.139
13 | LASLIYNFILF [AQP6_Y231_V234I] | 0.3008 | 0.3462 | -1.512 | 0.7887 | –
14 | SCPANYFAFKI [FAM3D_Y65_P60S] | – | -0.6297 | -0.7683 | -0.7557 | –
15 | LPEENYQVLCF [ARHGAP1_Y365_R369C] | 1.701 | 1.32 | 1.989 | 2.107 | –
16 | PIFLFYLMDLS [ITGB2_Y131_D128Y_YF] | – | 1.841 | – | -0.3916 | –
17 | FAELMYTGFWH [ASS1_Y322_V321M] | -0.4066 | 0.6121 | 0.8429 | -0.1313 | –
18 | HGEAFYSEVKA [PAK5_Y182_P187A_YF] | -0.1663 | -0.6457 | – | – | Screen (c-Src kinase domain; [6]): 0.7945

Row | Substance | Screen (Fer kinase domain; [5]) | Screen (EPHB1 kinase domain) | Screen (EPHB2 kinase domain [1]; [7]) | Screen (c-Src kinase domain; [9]) | other results
19 | LIFVSYDDWDF [GRIN2A_Y281_S278F_YF] | -0.259 | 0.6915 | 1.496 | 0.7047 | –
20 | NIEPIYLNMLL [ATR_Y317_V316I] | 0.3194 | 0.9992 | 1.556 | 0.03812 | –
21 | HRGHLYLAIEF [TEK_Y899_Y897H_YF] | – | – | – | – | Screen (c-Src kinase domain; [6]): 2.155; Screen (variant relative to reference peptide, measured in the pTyr-Var library screen) (EPHB1 kinase domain): 0.9917
22 | NTILLYHIMAW [GPR143_Y157_S152N] | – | 0.2317 | 0.3631 | – | Screen (c-Abl kinase domain [4]; [12]): 0.6057
23 | FADGVYLALEE [DUOX2_Y70_Q71L_YF] | – | -0.7119 | -0.6876 | -0.6157 | –
24 | SPPILYSFFLN [FCRL6_Y239_D244N_YF] | 1.473 | 0.08597 | 0.2765 | 0.0865 | –
25 | LENSTYQFICV [CRB1_Y760_R764C_YF] | -1.109 | -0.5365 | 0.2665 | -1.066 | Screen (c-Abl kinase domain [4]; [12]): 0.05369
26 | NPIGLYSAEIL [LDB3_Y202_T206I] | 1.652 | 0.7886 | 0.5797 | – | –
27 | ANAFIYDVQLP [L1CAM_Y420_V421D_YF] | – | 1.352 | – | 2.894 | –
28 | RGDCMYASLLG [AR_Y269_P271S] | -2.075 | -1.7 | -2.657 | 0.07196 | –
29 | DSNLIYSQIWS [FCRL3_Y662_P660L] | -0.3219 | -0.4048 | -0.3687 | -0.2629 | –
30 | LTERDYSFVTT [ACTG2_Y199_G198D] | 1.738 | 1.497 | 1.327 | – | –
31 | MSRNLYSGDCF [DDR2_Y736_Y740C_YF] | -0.7796 | -1.85 | -2.168 | -1.107 | –
32 | LLDGEYFTLQI [TP53_Y327_P322L] | – | – | – | – | Screen (Fer kinase domain; [11]): 0.2479; Screen (c-Src kinase domain; [6]): 0.8932; Screen (variant relative to reference peptide, measured in the pTyr-Var library screen) (EPHB1 kinase domain): 0.245
33 | GNLLIYTDFGK [HGD_Y166_E168D] | – | 0.7596 | – | -0.3604 | –
34 | DNEAIYDICRC [TUBA4A_Y210_R215C] | – | – | – | – | Screen (Fer kinase domain; [11]): -0.3932; Screen (c-Abl kinase domain [4]; [10]): -0.2438; Screen (c-Src kinase domain; [6]): 0.192; Screen (variant relative to reference peptide, measured in the pTyr-Var library screen) (EPHB1 kinase domain): -1.159; Screen (EPHB2 kinase domain [1]; [8]): -0.1529
35 | LRWREYQRQDF [PRKRIP1_Y90_R87W_YF] | 1.318 | 1.398 | 1.877 | – | Screen (c-Src kinase domain; [6]): 1.62
36 | NREGVYRVFAP [TGFBI_Y537_T538R] | – | – | – | – | Screen (Fer kinase domain; [11]): -4.485; Screen (c-Src kinase domain; [6]): -0.9266; Screen (variant relative to reference peptide, measured in the pTyr-Var library screen) (EPHB1 kinase domain): -2.691; Screen (EPHB2 kinase domain [1]; [8]): -2.433
